Here are results for four compounds from PMC8070284, “Pharmacokinetic Characterization of LW6, a Novel Hypoxia-Inducible Factor-1α (HIF-1α) Inhibitor in Mice” (Molecules, 2021).

Data set [1] is described as follows: In vivo plasma pharmacokinetics after a single i.v. or p.o. dose in male ICR mice. Also noted: species or system mouse. To be noted: for half-life / Vd: male, ICR; for half-life / Vd / MRT / clearance: iv; for Cmax / Tmax: po. The text has this:
The animal experiments conducted in this study were approved by the Institutional Animal Care and Use Committee of the Korea Research Institute of Bioscience and Biotechnology (Chung-buk, Korea; KRIBB-AEC-15005, 9 January 2015) and performed in compliance with the National Institutes of Health Guidelines for the care and use of laboratory animals and Korean national laws for ethical conduct in the care and use of animals. Specific pathogen-free (SPF) male ICR mice (8 weeks old) were purchased from Koatech Co. (Pyeongtaek, Kyonggi, Republic of Korea) and maintained in an SPF environment at a temperature of 22 ± 2 °C with a 12-h light/dark cycle and a relative humidity of 50 ± 10%. Food and water were given ad libitum. Animals were allowed to acclimatize to the testing facility for a week before being used in the study. Animal group for oral administration was fasted overnight before the study and fed again 4 h after dosing. Mice were given a single dose of test substance intravenously (i.v.) via tail vein injection or orally (p.o.) by a disposable syringe with an oral zonde. While LW6 was administered i.v. (5 mg/kg) or p.o. (5 mg/kg), APA was administered only i.v. (5 mg/kg). The solutions were prepared in dimethylacetamide/Cremophor EL/20% v/v 2-hydroxypropyl β-cyclodextrin in de-ionized water (1/1/3 v/v; i.v. or p.o. for LW6) or ethanol/20% v/v 2-hydroxypropyl β-cyclodextrin in de-ionized water (1/9 v/v; i.v. for APA) and administered at a dose volume of 5 mL/kg for both i.v. and p.o. Blood samples were collected via saphenous vein without the use of anesthesia as described in the earlier methodology study at the time points including 0, 0.25, 0.5, 0.75, 1, 2, 4, 6, 8, and 24 h after oral administration or 0, 0.083, 0.167, 0.25, 0.5, 1, 2, 4, 6, 8, and 24 h after intravenous administration. These samples were collected into Microvette® capillary tubes at predetermined time points. The blood samples were centrifuged under refrigeration at 12,000× g for 3 min and then kept frozen at −20 °C until analysis.
Plasma samples were prepared for analysis by the protein precipitation method. An aliquot of 15 µL from each plasma sample was transferred to a PCR tube (Axygen, Union City, CA, USA). Four volumes of acetonitrile containing the analytical internal standard (IS) 4-methylumbelliferone were added and the resulting mixture was vortexed for 10 min on a Multi-Tube vortexer (VWR International, West Chester, PA, USA), and sonicated for 30 min at room temperature. The tube was centrifuged at 12,000× g for 10 min and the supernatant was analyzed for the test substance. Sample analysis was performed by 3200 Q TRAP LC-MS/MS system (Applied Biosystems, Concord, ON, Canada) in a negative MRM mode. The analytical methods are described below.
Pharmacokinetic parameters were calculated by noncompartmental analysis of the plasma concentration-time profiles using Kinetica^TM 4.4.1 (Thermo Fisher Scientific, Inc., Woburn, MA, USA). The areas under the plasma concentration–time curves (AUC) were calculated by the linear-trapezoidal method. Total body clearance (CL) was calculated as follows: CL = Dose/AUC0–inf. Terminal elimination half-life (t1/2) was calculated by the following equation: t1/2 = 0.693/λz, where λz is the terminal disposition rate constant. Volume of distribution at steady state (Vss) was calculated as follows: Vss = CL × AUMC0–inf/AUC0–inf, where AUMC0–inf is the area under the first moment of the plasma concentration-time curve extrapolated to infinity. Oral bioavailability (F) was calculated using the following equation:(1) F=(AUCpo/Dosepo)/(AUCiv/Doseiv)×100
Fraction of dose converted to a systemically available metabolite was calculated by the following equation, where D is the dose of the parent, AUC(m) is the area under the curve of metabolite, and CL(m) is the systemic clearance of metabolite:(2) % of dose = AUC(m) ×CL(m)/D×parent mol. wt./metabolite mol. wt. ×100 […]

Data set [2] can be described thus: Metabolic stability in pooled mouse liver microsomes. The format is in vitro ADME. The protocol: LW6 (1 µM) was incubated with pooled mouse liver microsomes (0.5 mg/mL) in the absence or presence of NADPH (1 mM) to determine its conversion to APA. LW6 was degraded slowly in the absence or presence of NADPH, with 63% or 65% remaining after 60 min microsomal incubations, respectively (Figure 3A). […] APA, following its formation, gradually disappeared from the microsomal incubation media only in the presence of NAPDH (Figure 3A). To determine whether APA was metabolized by cytochrome P450 (CYP450), APA (1 µM) also was incubated with pooled male mouse liver microsomes (0.5 mg/mL) in the absence or presence of NADPH (1 mM).
All incubations were conducted in triplicate at 37 °C in eight-well tube strips placed in an 8 × 12 rack (VWR, Emeryville, CA). Incubation mixtures consisted of mouse liver microsomes (0.5 mg protein/mL), NADPH (1 mM), and LW6 (1 µM) or APA (1 µM) in 0.1 M potassium phosphate buffer (pH 7.4). The final incubation volume was 160 µL and the final acetonitrile content was 1%. Samples were preincubated for 5 min at 37 °C before adding LW6 or APA to initiate the reaction. The reaction was terminated at 0, 5, 15, 30, and 60 min by the addition of 320 µL of ice-cold acetonitrile containing the internal standard. Incubation mixtures were then centrifuged at 910× g for 10 min and the supernatant was analyzed by the LC-ESI/MS/MS method described below for quantitation of LW6 and APA.

The subject of the next data set is HCT116 xenograft. Kind of data set: HCT116 xenograft model study. The data set is classed as in vivo. The settings on record: data not shown.
A further data set is described as follows: Stability in mouse serum. The data set is classed as in vitro ADME. The method, then:
All incubations were conducted in triplicate at 37 °C in eight-well tube strips placed in an 8 × 12 rack (VWR, Emeryville, CA, USA) with 50 µL of mouse serum in each tube. LW6 (1 mM) dissolved in acetonitrile was added to a final concentration of […] (1% acetonitrile) to initiate the study. The reaction was terminated at 0, 1, 2, 4, and 6 h by adding 150 µL of ice-cold acetonitrile containing the internal standard. The eight-well cluster tube plate was centrifuged at 910× g for 10 min and the supernatant was analyzed by the LC-ESI/MS/MS method described below for quantitation of LW6 and APA.

A short description of data set [3]: Stability in phosphate buffer at physiological pH. The data set is classed as physicochemical. To be noted: data not shown.
The test system of the next data set is HIF-1α. The settings on record: cited from earlier work.
The nature of another data set: in vitro. To be noted: human.
Where [4] appears, read: mouse, plasma, 5 mg/kg, plasma, analyte = label, after single i.v. dose of LW6 5 mg/kg, male ICR mice, read-out: t1/2 (terminal) (converted).
The mark [5] stands for this setting: mouse, plasma, analyte = label, after single i.v. dose of LW6 5 mg/kg, male ICR mice.
[6] abbreviates: mouse, plasma, analyte = label, after single p.o. dose of LW6 5 mg/kg, male ICR mice.
Setting [7] is: mouse, plasma, analyte = label, after single p.o. dose of LW6 5 mg/kg, male ICR mice, n = 5.
The mark [8] stands for this setting: plasma, analyte = label, after single i.v. dose of LW6 5 mg/kg, male ICR mice.
Setting [9] is: plasma, analyte = label, after single p.o. dose of LW6 5 mg/kg, male ICR mice.
[10] abbreviates: single i.v. dose of APA 5 mg/kg, male ICR mice, n = 5.
The mark [11] stands for this setting: Caco-2, pH 7.4, Typical apparent permeability coefficient (Papp) values.

Read-outs that look alike come from different tables or passages of the source.

Turning to `O=C(O)COc1ccc(C23CC4CC(CC(C4)C2)C3)cc1` [APA, (4-adamantan-1-yl-phenoxy)acetic acid], the half-life in data set [1] (setting [4]) is 2.7 ± 0.2 h; in data set [1] (mouse, plasma, 5 mg/kg, single i.v. dose of APA 5 mg/kg, male ICR mice, n = 5, read-out: t1/2 (converted)) it was 2.4 ± 0.4 h. In addition, the Vd in data set [1] (mouse, plasma, 5 mg/kg, single i.v. dose of APA 5 mg/kg, male ICR mice, n = 5, read-out: Vss) came to 0.4 ± 0.1 L/kg; in data set [1] (mouse, plasma, 5 mg/kg, single i.v. dose of APA 5 mg/kg, male ICR mice, n = 5, read-out: Vz) it was 0.5 ± 0.2 L/kg. The compound also gave a mean residence time MRT in data set [1] (setting [5]) of 3.6 ± 0.2 h. Besides, the clearance in data set [1] (mouse, plasma, single i.v. dose of APA 5 mg/kg, male ICR mice, n = 5, read-out: CL (converted)) was 1.67 mL/min/kg. In data set [1] (setting [6]), this compound registered a Cmax of 4240 ± 1260 ng/mL. For the same compound, the Tmax in data set [1] (setting [7]) turned out to be 0.7 ± 0.1 h. Besides, the entries for the “AUC0–inf” value in data set [1] (setting [8]), in data set [1] (setting [9]) and in data set [1] (setting [10]) were 17,759.9 ± 3194.1 ng/hr/mL, 14,744.8 ± 5517.4 ng/hr/mL and 39,624.7 ± 9502.30 ng/hr/mL, respectively. For the same compound, the “AUC0–t” value was 17,731.4 ± 3190.5 ng/hr/mL in data set [1] (setting [8]), 14,615.3 ± 5507.8 ng/hr/mL in data set [1] (setting [9]) and 37,703.8 ± 10,162.9 ng/hr/mL in data set [1] (setting [10]). In data set [1] (setting [10]), this compound had a CL of 1.7 ± 0 mL/min/kg. In addition, the “APA depletion in mouse liver microsomes (in words)” value in data set [2] (APA 1 µM, 0.5 mg/mL microsomes, presence of NADPH (1 mM)) is “progressively decreased”. In the data set on HCT116 xenograft, the “Tumor growth inhibition relative to the control group” value is recorded as “up to 43.3%”.
With `COC(=O)c1ccc(O)c(NC(=O)COc2ccc(C34CC5CC(CC(C5)C3)C4)cc2)c1` [LW6], the half-life at 5 µM in “Stability in mouse serum” (ICR, mouse serum, 5 µM, up to 6 h, read-out: t1/2 of degradation in serum) is over 6 h. Also, the “Conversion to APA in mouse serum (in words)” value in “Stability in mouse serum” (LW6 5 µM) is recorded as “converted slowly to APA”. In addition, the “Stability in phosphate buffer” value in data set [3] is given as “stable”. Further, the “Time beyond which plasma level was below the quantitation limit” value is 4 h in data set [1] (after i.v. LW6 5 mg/kg) and 1 h in data set [1] (after p.o. LW6 5 mg/kg). Further, the half-life in data set [1] (setting [4]) is 0.6 ± 0.1 h. For the same compound, the Vd in data set [1] (mouse, plasma, 5 mg/kg, single i.v. dose of LW6 5 mg/kg, male ICR mice, read-out: Vss (volume of distribution at steady state)) was found to be 0.5 ± 0.1 L/kg. The compound further yielded an MRT in data set [1] (setting [5]) of 0.3 h. The clearance in data set [1] (mouse, plasma, single i.v. dose of LW6 5 mg/kg, male ICR mice, read-out: CL (systemic clearance) (converted)) was 28.3 mL/min/kg. Besides, in data set [1] (mouse, plasma, oral, LW6 5 mg/kg p.o. vs 5 mg/kg i.v., calculated using AUC0–t, male ICR mice, read-out: F (oral bioavailability)), the bioavailability is 1.7 ± 1.8%. Further, the Cmax in data set [1] (setting [6]) turned out to be 65.5 ± 47.3 ng/mL. Further, the Tmax in data set [1] (setting [7]) is 0.3 ± 0.1 h. In addition, the “Decrease of plasma exposure of LW6 when administered orally” value in data set [1] (oral vs intravenous, 5 mg/kg) was “about 60 fold”. Further, in data set [1] (setting [8]), the “AUC0–inf” value worked out at 2957.1 ± 215.4 ng/h/mL. Moreover, the “AUC0–t” value in data set [1] (setting [8]) turned out to be 2949.3 ± 218.4 ng/h/mL; in data set [1] (setting [9]), 49.5 ± 52.5 ng/h/mL. Also, in data set [1] (single i.v. dose of LW6 5 mg/kg, male ICR mice), the Vz is on record as 1.6 ± 0.3 Lkg. For the same compound, the “LW6 remaining after 60 min microsomal incubation” value in data set [2] (1 µM, 0.5 mg/mL microsomes, absence of NADPH) is 63%; in data set [2] (1 µM, 0.5 mg/mL microsomes, presence of NADPH (1 mM)), 65%. The “t1/2 of conversion to APA in liver microsomes” value in data set [2] (1 µM, 0.5 mg/mL mouse liver microsomes) was over 1 h. The half-life at 1 µM in data set [2] (mouse, pooled mouse liver microsomes, pH 7.4, as stated in abstract, read-out: t1/2 of degradation in mouse liver microsomes) is over 1 h. Besides, the “Accumulation of HIF-1α” value in the data set on HIF-1α was “inhibited”. Besides, in the data set on HIF-1α (without affecting HIF-1β expression, via regulation of VHL), the HIF-1α protein expression result was “decreased”. In the data set “in vitro” (Caco-2, pH 7.4, Papp), this compound came in with an apparent permeability coefficient (Papp) at 120 min, 5 µM of 2.1 ± 0.4 ×10⁻⁶ cm/s. The “Permeability across Caco-2 cell monolayers (in words)” value in the data set with Caco-2 cells is “moderately permeable”.
Take `COCCc1ccc(OCC(O)CNC(C)C)cc1` (stereo not shown) [Metoprolol, metoprolol]: the Papp at 120 min, 5 µM in “in vitro” (Caco-2, pH 7.4, Papp) is 35.3 ± 0.6 ×10⁻⁶ cm/s; in “in vitro” (setting [11]) it was over 25 ×10⁻⁶ cm/s.
On to `CNC(=C[N+](=O)[O-])NCCSCc1ccc(CN(C)C)o1` [Ranitidine, ranitidine], for which the Papp at 120 min, 5 µM in the data set “in vitro” (Caco-2, pH 7.4, Papp) is 0.8 ×10⁻⁶ cm/s; in the data set “in vitro” (setting [11]) it was under 2 ×10⁻⁶ cm/s.
